Legend:
HLA-DRα mRNA = HLA-DRα mRNA by standard PCR and real-time PCR in human cell lines JAR and SK-N-MC; format: cell-based; conditions: JAR; for fold increase in HLA-DRα (MHC class II) mRNA over the control: real time quantitative RT-PCR, 100 nM TSA, IFNγ 100 U/ml or combination for 12 hours, sodium butyrate (FIG. 2)
Protocol: (§1) To determine the effect of DAIs on HLA-DRα mRNA, cytoplasmic RNA was isolated from untreated and treated human trophoblast cell line JAR using standard techniques (RNeasy System from Qiagen). Standard PCR was performed using primers for DR and CIITA (Murphy et al., 1998, Reprod Dev., Chin et al., 1994, Immunity 1:687-697). Other primers used included human and mouse GAPDH (Clontech) and forward primer 5′-[…]-3′ (SEQ ID NO:25) and reverse primer 5′-[…]-3′ (SEQ ID NO:26) for mouse CIITA. PCR products were amplified with GOLD Taq for 10 min at 95° C., then 95° C. for 30 sec, 60° C. for 60 sec (25-45 cycles), then an extension at 60° C. for 10 min.
(§2) Oligonucleotide primers and TaqMan 5′-6-FAM and 3′-TAMRA-labeled probes were synthesized in the RPCI Biopolymer Facility. Primer and probe sequences are listed under Sequence Listing and also in FIG. 9. Sequences were designed using standard software (PrimerExpress software, PE Biosystems) except for human GAPDH.
(§3) Realtime PCR reactions contained TaqMan Universal PCR Master Mix (PE Biosystems), primers at 300 nM, and probes at optimal concentrations (150-225 nM depending on gene). Reactions were carried out on an ABI PRISM 7700 Sequence Detection System (PE Biosystems). Cycling conditions were 50° C. for 2 min, 95° C. for 10 min, then 60 cycles of 95° C. for 15 sec, 60° C. for 1 min. PCR samples were run in triplicate. The detection system and quantitative PCR was carried out as described by Williamson et al. (1995, Genet Res. 65:83-93). The threshold cycle number CT corresponded to the cycle number, at which the fluorescent emission reaches 10 standard deviations above the mean fluorescent emission, measured during the early ‘baseline’ cycles of the PCR. The CT values for triplicates were averaged and normalized to GAPDH levels. […] Assuming reverse transcription efficiencies were approximately the same for each sample, relative amounts of mRNA using the comparative CT method. Fold changes in mRNA levels were calculated as 2^x where x=the difference between normalized CT values of the control and experimental samples.
To evaluate the effects of DAIs on human cells, the human trophoblast cell line was treated with 100 nM Trichostatin A (TSA), IFNγ (100 U/ml) or a combination of TSA and IFNγ for 12 hours. RNA was isolated and real time quantitative RT-PCR was carried out. The fold increase in mRNA over the control was calculated.

[1] = test system: class II transactivator (CIITA) mRNA; experiment: CIITA mRNA by standard PCR and real-time PCR in human cell lines JAR and SK-N-MC; format: cell-based; conditions: for CIITA mRNA fold change: MC cells, real time PCR up to 60 cycles, 100 nM TSA 24 hr, NaBu 1 mM 48 hr
Protocol: as §1, §2, §3
[…] RNA was isolated and real time quantitative RT-PCR was carried out. The fold increase in mRNA over the control was calculated.

IAα mRNA = experiment: MHC class II (IAα) mRNA by RT-PCR and real-time PCR in mouse tumor models; format: cell-based; conditions: for fold increase in Ia (Iα): real-time PCR; for class II mRNA activation: titration with different concentrations of TSA for 12 hours, RT-PCR and real-time PCR
Protocol: as §1
In order to obtain more quantitative information on fold changes in DR and CIITA after treatment with the deacetylase inhibitors, a real time fluorescence technique capable of quantitating low copy numbers of transcripts was carried out as follows. Oligonucleotide primers and TaqMan 5′-6-FAM and 3′-TAMRA-labeled probes were synthesized in the RPCI Biopolymer Facility. Primer and probe sequences are listed under Sequence Listing and also in FIG. 9. Sequences were designed using standard software (PrimerExpress software, PE Biosystems) except for human GAPDH.
Realtime PCR reactions contained TaqMan Universal PCR Master Mix (PE Biosystems), primers at 300 nM, and probes at optimal concentrations (150-225 nM depending on gene). Reactions were carried out on an ABI PRISM 7700 Sequence Detection System (PE Biosystems). Cycling conditions were 50° C. for 2 min, 95° C. for 10 min, then 60 cycles of 95° C. for 15 sec, 60° C. for 1 min. PCR samples were run in triplicate. The detection system and quantitative PCR was carried out as described by Williamson et al. (1995, Genet Res. 65:83-93). The threshold cycle number CT corresponded to the cycle number, at which the fluorescent emission reaches 10 standard deviations above the mean fluorescent emission, measured during the early ‘baseline’ cycles of the PCR. The CT values for triplicates were averaged and normalized to GAPDH levels. […] In such cases, in order to calculate a minimum fold change for other samples in the same group, the CT value was arbitrarily set at 40. […] Assuming reverse transcription efficiencies were approximately the same for each sample, relative amounts of mRNA using the comparative CT method. Fold changes in mRNA levels were calculated as 2^x where x=the difference between normalized CT values of the control and experimental samples.
To determine if the effect of DAIs on MHC class II was manifested in other tumors and in different species, the effect of TSA was tested on four commonly used mouse tumor models: the SaI fibrosarcoma, the Colon 26 adenocarcinoma, the J558 plasmacytoma and the P815 mastocytoma. TSA induced class II in all four mouse tumors examined, while the effects of IFNγ were variable (FIG. 4). Data presented for each cell line represents optimal incubation time and concentration of TSA and is compared with 100 U/ml of IFNγ at the same time point. Numbers over bars represents fold changes. […] Colon 26 and J558 that differed strikingly in their reactivity to IFNγ were selected for further evaluation. RT-PCR and real time PCR was used to examine induction of CIITA and IAα by TSA and IFNγ. A20, a constitutively positive B cell line was used as a positive control. The results are shown in FIGS. 5A-D. The numbers over bars represent fold changes. […] Since the classical IFNγ inducible genes IRF-1 and GBP as well as MHC class I mRNA were not induced by IFNγ in J558 (data not shown), this cell line may have a signaling defect in the IFNγ pathway. Unexpectedly however, and unlike either the MC or Colon 26 cells, TSA induced both CIITA (102-fold) and Iα (537-fold) in J558 as shown in FIGS. 5B and 5D.

CD40 mRNA = CD40 mRNA by real-time PCR in SK-N-MC; format: cell-based, human; conditions: MC cells, at 24 hours
[2] = SK-N-MC, routine RT-PCR at 35 cycles, 100 nM TSA 24 hours, 1 mM NaBu 48 hours, IFNγ

IFNγ: gamma-interferon, cytokine used as comparator at 100 U/ml
fold increase in HLA-DRα (MHC class II) mRNA over the control (HLA-DRα mRNA): did not induce
CIITA mRNA fold change ([1]; IFNγ): 4 fold
CIITA transcription [1, 2]: not detected
fold increase in Ia (Iα) (IAα mRNA; Colon 26): 58 fold
expression of class II (IAα mRNA; Colon 26, standard RT-PCR at 35 cycles): induced
induction of class II mRNA (IAα mRNA; J558, 100 U/ml IFNγ (FIG. 4)): failed to induce
class II mRNA activation (IAα mRNA; J558): failed to activate
class II mRNA (IAα mRNA; P815, 100 U/ml IFNγ (FIG. 4)): only weakly enhanced
fold-increases in class II mRNA compared with TSA (IAα mRNA; SaI and Colon 26, 100 U/ml IFNγ): nearly equivalent fold-increases
CD40 mRNA fold increase (CD40 mRNA): 5 fold

CC(/C=C/C(=O)NO)=C\[C@@H](C)C(=O)c1ccc(N(C)C)cc1 [TSA, Trichostatin A]
fold increase in HLA-DRα (MHC class II) mRNA over the control (HLA-DRα mRNA): 15 fold
levels of mRNA for DR (HLA-DRα mRNA; standard PCR, 100 nM or 250 nM TSA or 1 mM sodium butyrate): substantial increase
CIITA transcription ([1]; JAR, standard PCR at 35 cycles, 100 nM or 250 nM TSA or 1 mM sodium butyrate): undetectable
CIITA mRNA fold change ([1]; IFNγ): no increase
CIITA transcription [1, 2]: undetectable
fold increase in Ia (Iα) (IAα mRNA; Colon 26): 74 fold
Iα (class II) fold induction (IAα mRNA; J558, RT-PCR and real-time PCR (FIGS. 5B and 5D)): 537 fold
class II mRNA activation (IAα mRNA; J558): induced
induction of class II mRNA (IAα mRNA; all four mouse tumors (SaI, Colon 26, J558, P815), optimal incubation time and concentration of TSA): induced
CD40 mRNA fold increase (CD40 mRNA): 12 fold
